Experimental data from PMC4932538, “Alkanediamide-Linked Bisbenzamidines Are Promising Antiparasitic Agents” (Pharmaceuticals, 2016).
“Also recorded” adds a separate entry of the source. Like-named read-outs stand apart in the source and are kept apart here.

Assays:
[1] = system: T. b. brucei Lab 110 EATRO (pentamidine-sensitive); experiment: In vitro antitrypanosomal activity, T.b. brucei Lab 110 EATRO; format: cell-based, Trypanosoma brucei brucei; conditions: Table S1, from IC50 of Table 1; for IC50: Trypanosoma brucei, read-out: pIC50 T.b. brucei (converted)
Protocol: The in vitro assays with the two isolates of T. brucei were conducted according to previously described procedures [14].

[2] = system: T. b. rhodesiense KETRi 243 (melarsoprol, pentamidine- and diminazene diaceturate-resistant); experiment: In vitro antitrypanosomal activity, T.b. rhodesiense KETRI 243; format: cell-based, Trypanosoma brucei rhodesiense; conditions: Table S1, from IC50 of Table 1; for IC50: Trypanosoma brucei, RHODESIENSE, read-out: pIC50 T.b. rhod (converted)
Protocol: (§5) The anti-T. cruzi activity was determined using intracellular amastigote forms of T. cruzi Tulahuen strain C2C4 in rat skeletal myoblasts (L6 cells) as described previously [24]. The anti-L. donovani activity was determined using the amastigotes of L. donovani strain MHOM-ET-67/L82 as described previously [24]. […] The cytotoxicity assays against rat skeletal myoblast L6-cells were performed as described previously [24].

[3] = system: intracellular amastigote forms of T. cruzi Tulahuen strain C2C4 in rat skeletal myoblasts (L6 cells); experiment: In vitro anti-T. cruzi activity; format: cell-based, Trypanosoma cruzi; conditions: average of at least two determinations
Protocol: as §5

[4] = system: amastigotes of L. donovani strain MHOM-ET-67/L82; experiment: In vitro anti-L. donovani activity; format: cell-based, Leishmania donovani; conditions: average of at least two determinations
Protocol: as §5

[5] = system: P. falciparum NF54 (chloroquine-sensitive); experiment: In vitro anti-plasmodial activity, NF54; format: cell-based, Plasmodium falciparum
[6] = system: P. falciparum K1 (chloroquine-resistant); experiment: In vitro anti-plasmodial activity, K1; format: cell-based, Plasmodium falciparum
Protocol: as §5

[7] = system: rat skeletal myoblast L6-cells; experiment: Cytotoxicity against L6 cells; format: cell-based
Protocol: as §5

[8] = system: T. b. brucei Lab 110 EATRO (pentamidine-sensitive); set-up: method as in PMID 19736009; conditions: strain Lab 110; average of at least two determinations; cited from earlier work
[9] = system: T. b. rhodesiense KETRi 243 (melarsoprol, pentamidine- and diminazene diaceturate-resistant); set-up: method as in PMID 19736009; conditions: strain KETRI 243; average of at least two determinations; read-out: IC50 T.b. rhod; cited from earlier work
poly(dA-dT) = experiment: DNA thermal melting with poly(dA-dT); format: binding; conditions: 1:5 compound to DNA base pair ratio; mean of at least two determinations
Protocol: (§1) In addition to the determination of the potency of the synthesized compounds against different strains of cell lines (Table 1), thermal melting experiments of these compounds were also conducted with poly(dA-dT) and calf thymus DNA (Table S1, supplementary file). […] The weaker binding to DNA (lower ΔTm values) compared to pentamidine might be attributed to the lower lipophilicity and higher PSA properties of these compounds since they would be expected to bind less favorably in the less polar environment of the minor grove of DNA as was reported for the aza-analogues of furamidine. […] Therefore, ability of these compounds to act at other potential targets cannot be ruled out.
(§2) The DNA binding affinity of the tested compounds was determined by measuring the change in mid-point of the thermal denaturation curves for a 1:5 compound to DNA base pair ratio as described previously. Each Tm value reported in Table S1 (supplementary file) represents the mean of at least two experimental determinations.

calf thymus DNA = experiment: DNA thermal melting with calf thymus DNA; format: binding; conditions: 1:5 compound to DNA base pair ratio; mean of at least two determinations
Protocol: as §1, §2

[10] = system: T.b. brucei Lab 110 EATRO; experiment: In vivo trypanocidal activity in mice, Lab 110 EATRO
Protocol: (§3) The compounds were administered via the intraperitoneal route at doses ranging from 1.0 mg/kg/day to 25.0 mg/kg/day for 3 days unless otherwise noted. Pentamidine was used as the reference compound. All three of the tested compounds were effective in curing mice infected with the Lab 110 EATRO or KETRI 2002 strains at several doses.
(§4) The in vivo studies were conducted according to the procedures described previously.

[11] = system: T.b. rhodesiense KETRI 2002; experiment: In vivo trypanocidal activity in mice, KETRI 2002
Protocol: as §3, §4

[12] = chloroquine-sensitive strain, read-out: IC50 P. falcip NF54
[13] = chloroquine-resistant strain, read-out: IC50 P. falcip K1
[14] = cytotoxicity, read-out: IC50 L6 Cells
[15] = Trypanosoma cruzi, TULAHUEN, L6
[16] = Plasmodium falciparum, K1, chloroquine-resistant strain, read-out: IC50 P. falcip K1
[17] = Rattus norvegicus, L6, cytotoxicity, read-out: IC50 L6 Cells

| Compound | pIC50 T.b. brucei [1] | pIC50 T.b. rhod [2] | IC50 [3] [µM] | IC50 [4] [µM] | IC50 [5, 12] [µM] | pIC50 P. falcip K1 ([6]; Table S1, from IC50 of Table 1) | IC50 [6, 13] [µM] | IC50 [7, 14] [µM] | IC50 [8] [µM] | IC50 [9] [µM] | Thermal Melting ΔTm Poly(dA-dT) (poly(dA-dT)) [C] | Thermal Melting ΔTm CT-DNA (calf thymus DNA) [C] | further results |
| --- | --- | --- | --- | --- | --- | --- | --- | --- | --- | --- | --- | --- | --- |
| N=C(N)c1ccc(NC(=O)CCCCC(=O)Nc2cccc(C(=N)N)c2)cc1 [Compound 10] | 7.921 | 8.155 | > 100 | > 100 | 0.015 | 8.398 | 0.004 | > 100 | 0.012 | 0.007 |  |  |  |
| N,N′-bis[4-(aminoiminomethyl)phenyl] dodecane-1,12-dicarboxamide [Compound 15] | 8.097 | 8.155 | 80.9 | 10.7 | 0.032 | 7.824 | 0.015 | 80.2 | 0.008 | 0.007 | 8.5 |  |  |
| O=C(Cn1ccnc1[N+](=O)[O-])NCc1ccccc1 [benznidazole, reference compound] |  |  |  |  |  |  |  |  |  |  |  |  | IC50 [3, 15]: 1.13 µM |
| N=C(N)c1ccc(NC(=O)CCCCCCCCC(=O)Nc2ccc(C(=N)N)cc2)cc1 [Compound 14] | 8.699 | 8.398 | 76.4 | 68.5 | 0.014 | 7.921 | 0.012 | 78.6 | 0.002 | 0.004 | 10.0 | 6.6 |  |
| N,N′-bis[4-(aminoiminomethyl)phenyl] nonane-1,9-dicarboxamide [Compound 13] | 6.398 | 6.620 | 99.5 | 67.4 | 0.002 | 8.097 | 0.008 | 49.2 | 0.4 | 0.24 | 7.5 | 4.6 |  |
| N#Cc1ccc(NC(=O)CCCC(=O)Nc2ccc(C#N)cc2)cc1 [Compound 3] |  |  |  |  |  |  |  |  | 6.5 | 7.9 | 0.15 | −0.2 | IC50 [1]: 6.5 µM; IC50 [2]: 7.91 µM; IC50 [3, 15]: > 100 µM; IC50 ([4]; Leishmania donovani): > 100 µM; IC50 ([6]; Plasmodium falciparum, K1, Table S1, from IC50 of Table 1, read-out: pIC50 P. falcip K1 (converted)): 44.8 µM; IC50 [6, 16]: 44.8 µM; IC50 [7, 17]: > 100 µM |
| COc1cc([C@@H]2c3cc4c(cc3[C@H](O)[C@H]3COC(=O)[C@H]23)OCO4)cc(OC)c1OC [podophyllotoxin, reference compound] |  |  |  |  |  |  |  |  |  |  |  |  | IC50 ([7]; Rattus norvegicus, L6, read-out: IC50 L6 Cells): 0.01 µM |
| NC(=O)c1cccc(NC(=O)CCCCC(=O)Nc2cccc(C(N)=O)c2)c1 [Compound 9] |  |  |  |  |  |  |  |  |  | 1.97 | 0.0 |  | IC50 [2]: 1.97 µM; IC50 [3, 15]: > 100 µM; IC50 ([4]; Leishmania donovani): > 100 µM; IC50 [6, 16]: > 100 µM; IC50 [7, 17]: 46.4 µM |
| N=C(N)c1ccc(NC(=O)CCCCCCC(=O)Nc2ccc(C(=N)N)cc2)cc1 [Compound 12] | 8.523 | 9.000 | > 100 | > 100 | 0.002 | 8.222 | 0.006 | 38.4 | 0.003 | 0.001 | 13.2 | 7.1 |  |
| N=C(N)c1cccc(NC(=O)CCCCC(=O)Nc2cccc(C(=N)N)c2)c1 [Compound 7] | 7.387 | 7.678 | > 100 | > 100 |  | 6.420 | 0.38 | > 100 | 0.041 | 0.021 | 13.8 |  |  |
| NC(=O)c1ccc(NC(=O)CCCCC(=O)Nc2ccc(C(N)=O)cc2)cc1 [Compound 8] |  |  |  |  |  |  |  |  | 2.8 | 1.1 | 0.0 |  | IC50 [1]: 2.8 µM; IC50 [2]: 1.1 µM; IC50 [3, 15]: > 100 µM; IC50 ([4]; Leishmania donovani): > 100 µM; IC50 [6, 16]: > 100 µM; IC50 [7, 17]: > 100 µM |
| N,N′-bis[4-(aminoiminomethyl)phenyl] butane-1,4-dicarboxamide [Compound 2] | 5.046 | 5.660 | > 100 | > 100 |  | 6.538 | 0.29 | 28 | 9 | 2.19 | 11.5 | 8.1 |  |
| CCN(CC)CCCC(C)Nc1ccnc2cc(Cl)ccc12 (centres unmarked) [chloroquine, reference compound] |  |  |  |  |  |  |  |  |  |  |  |  | IC50 ([5]; Plasmodium falciparum, NF54, read-out: IC50 P. falcip NF54): 0.006 µM; IC50 ([6]; Plasmodium falciparum, K1, read-out: IC50 P. falcip K1): 0.18 µM |
| N,N′-bis[4-(aminoiminomethyl)phenyl] heptane-1,7-dicarboxamide [Compound 11] | 8.699 | 8.699 | > 100 | > 100 | 0.002 | 8.699 | 0.002 | 43 | 0.002 | 0.002 | 10.7 | 6.4 | Mean Survival ([10]; 1.0, 2.5, 5, 10 mg/kg/day i.p. for 3 days (all doses)): >30 days; curing of infected mice ([10]; i.p., 3 days): the most effective; also recorded: highly effective; curing of infected mice ([11]; KETRI 2002, i.p., 3 days): the most effective; also recorded: highly effective; Mean Survival ([11]; KETRI 2002, 1.0, 2.5, 5, 10 mg/kg/day i.p. for 3 days (all doses)): >30 days |
